Legend:
human TRPA1 = human TRPA1 (Homo sapiens, UniProt O75762); assay: Ca2+ influx (Calcium 6 fluorescence) in human TRPA1 expressing HEK-293T cells; assay type: cell-based
Protocol: (§1) HEK-293T cells were cultured in DMEM (Thermofisher Scientific, Waltham, Mass.) and supplemented with 10% fetal bovine serum (FBS) (Thermofisher Scientific), penicillin (100 units/mL) and streptomycin (0.1 mg/mL). Cells were plated on 100 mm tissue culture plates coated with poly-D-lysine (Sigma Aldrich, Saint Louis, Mo.) and grown to ˜60% confluence. The cells were transiently transfected for 16-24 hours with either human or mouse orthologs of TRPA1 using Fugene 6 transfection reagents and Opti-MEM (Thermofisher Scientific) according to the manufacturer's protocol. Subsequently, cells were trypsinized, re-suspended and re-plated onto poly-D-lysine coated 96-well plates (Krystal black walled plates, Genesee Scientific) at 5×10^5 cells/mL (100 μL/well) and allowed to grow for another 16-20 hrs prior to the experiments. Cells were maintained as monolayers in a 5% CO2 incubator at 37° C.
(§2) Measurements of changes in intracellular Ca^2+ concentrations ([Ca^2+]i) were performed as described previously (Caceres et al., 2017). In brief, cells in 96-well plates were loaded with Calcium 6, a no-wash fluorescent indicator, for 1.5 hrs (Molecular Devices, San Jose, Calif.) and then transferred to a FlexStation III benchtop scanning fluorometer chamber (Molecular Devices). Fluorescence measurements in the FlexStation were performed at 37° C. (Ex:485 nm, Em: 525 nm at every 1.8 s). After recording baseline fluorescence, agonists (indole, IAld, cinnamaldehyde) were added and fluorescence was monitored for a total of 60 s. […] The change in fluorescence was measured as Fmax-F0, where Fmax is the maximum fluorescence and F0 is the baseline fluorescence measured in each well.

mouse TRPA1 = biological target: T1, mouse TRPA1 (Mus musculus, UniProt Q8BLA8); assay: Ca2+ influx (Calcium 6 fluorescence) in mouse Trpa1-expressing HEK-293T cells; assay type: cell-based
T1 construct: expressed in transfected cells; host or cells: HEK-293T
Protocol: as §1, §2

intestinal motility = assay: Zebrafish intestinal motility (PIV-Lab velocity analysis); assay type: in vivo; details: indole stimulation
Protocol: For EEC Trpa1 activation using the Optovin platform, zebrafish larvae were treated with 10 μM Optovin overnight. Following Optovin treatment, unanesthetized zebrafish were mounted in 1% LMA and imaged under a 780 upright Zeiss confocal microscope using 20× water objective lenses. For all the experiments, the mid-intestine region was imaged (FIG. 10D). The intestinal epithelium was selected as the region of interest (ROI) (FIG. 10A). Serial images were obtained at 1 s/frame. A 405 nm pulse of light was applied to the ROI at 1 pulse/10 s. For some experiments (FIG. 7D-F, FIG. 10B-G), the images were obtained at 10 s/frame.
The zebrafish intestinal motility is quantified through recorded image series of zebrafish intestine using the method similar as previously described (Ganz et al., 2018). Intestinal p velocity and v velocity were used to estimate intestinal motility in zebrafish as previously described using the PIV-Lab MATLAB app (Ganz et al., 2018). A positive value of the μ velocity indicates an anterograde intestinal movement and a negative value of the μ velocity indicates a retrograde intestinal movement. The time-course p velocity number is plotted as heatmaps. When calculating the mean velocity, only the mean velocity magnitude was calculated, which therefore doesn't account for the movement direction. The MTrackJ FIJI plugin was used to quantify the mean velocity magnitude (Meijering et al., 2012).

vagal sensory neurons = assay: In vivo calcium imaging of vagal sensory ganglia after microgavage; set-up: species or system zebrafish
Protocol: For delivering bacterial or chemicals specifically to the intestine, the established microgavage technique (Cocchiaro and Rawls, 2013) was adopted. Zebrafish were anesthetized with 1 mg/mL α-Bungarotoxin (α-BTX) and the gavage procedure was performed as previously described using microinjection station (Cocchiaro and Rawls, 2013). For bacteria gavage experiments, 1 ml of overnight bacterial culture was harvested, pelleted, washed with PBS and resuspended in 100 ul PBS.˜8 nl was then delivered into the zebrafish intestine using microgavage. The gavaged zebrafish was then transferred into egg water and mounted in 1% LMA for imaging. For chemical gavage experiments, ˜8 nl of AITC (100 mM), indole (1 mM) and IAld (1 mM) was gavaged into the intestine.
Tg(neurod1:Gcamp6f); Tg(neurod1:TagRFP) zebrafish were used to record vagal sensory ganglia calcium activity in vivo. Zebrafish were anesthetized with 1 mg/mL α-Bungarotoxin (α-BTX) and gavaged with chemical compounds or bacteria as described (Naumann et al., 2016). Zebrafish larvae were mounted in 1% LMA and imaged under a Zeiss 780 upright confocal microscope. Z-stack images of the entire vagal ganglia were collected as serial images at 10 mins/frame and processed in FIJI. Individual vagal sensory neurons were identified and the Gcamp6f to TagRFP fluorescence ratios of individual vagal sensory neurons were calculated.

Chain of human TRPA1 (O75762 whole entry): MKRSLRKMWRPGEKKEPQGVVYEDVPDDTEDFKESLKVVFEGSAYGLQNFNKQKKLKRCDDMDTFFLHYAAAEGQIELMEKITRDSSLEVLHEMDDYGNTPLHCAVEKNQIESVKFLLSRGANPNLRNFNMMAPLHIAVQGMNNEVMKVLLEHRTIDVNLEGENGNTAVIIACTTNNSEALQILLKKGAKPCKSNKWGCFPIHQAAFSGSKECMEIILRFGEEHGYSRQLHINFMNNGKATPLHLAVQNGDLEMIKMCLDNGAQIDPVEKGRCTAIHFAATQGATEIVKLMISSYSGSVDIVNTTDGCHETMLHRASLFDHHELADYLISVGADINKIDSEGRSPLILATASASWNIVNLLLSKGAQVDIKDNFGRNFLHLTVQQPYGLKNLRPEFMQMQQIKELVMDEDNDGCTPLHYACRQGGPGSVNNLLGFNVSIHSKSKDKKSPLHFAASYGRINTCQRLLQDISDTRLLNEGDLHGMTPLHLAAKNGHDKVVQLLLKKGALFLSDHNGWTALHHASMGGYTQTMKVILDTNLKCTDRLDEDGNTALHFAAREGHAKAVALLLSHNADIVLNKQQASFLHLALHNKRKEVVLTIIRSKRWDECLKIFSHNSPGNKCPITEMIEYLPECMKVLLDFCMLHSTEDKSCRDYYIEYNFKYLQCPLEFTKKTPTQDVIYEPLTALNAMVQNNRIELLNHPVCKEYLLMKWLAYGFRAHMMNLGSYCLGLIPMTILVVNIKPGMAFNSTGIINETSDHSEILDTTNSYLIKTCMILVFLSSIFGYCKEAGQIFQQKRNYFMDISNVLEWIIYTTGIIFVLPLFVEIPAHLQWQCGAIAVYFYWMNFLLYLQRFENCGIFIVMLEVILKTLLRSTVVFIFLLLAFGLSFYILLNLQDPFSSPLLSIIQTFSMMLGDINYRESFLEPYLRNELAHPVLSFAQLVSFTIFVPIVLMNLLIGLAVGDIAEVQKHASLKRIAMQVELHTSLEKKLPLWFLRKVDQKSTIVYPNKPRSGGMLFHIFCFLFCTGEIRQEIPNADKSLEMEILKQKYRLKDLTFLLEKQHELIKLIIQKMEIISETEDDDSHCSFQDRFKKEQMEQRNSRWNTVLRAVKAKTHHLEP
T1 sequence (Q8BLA8 whole entry): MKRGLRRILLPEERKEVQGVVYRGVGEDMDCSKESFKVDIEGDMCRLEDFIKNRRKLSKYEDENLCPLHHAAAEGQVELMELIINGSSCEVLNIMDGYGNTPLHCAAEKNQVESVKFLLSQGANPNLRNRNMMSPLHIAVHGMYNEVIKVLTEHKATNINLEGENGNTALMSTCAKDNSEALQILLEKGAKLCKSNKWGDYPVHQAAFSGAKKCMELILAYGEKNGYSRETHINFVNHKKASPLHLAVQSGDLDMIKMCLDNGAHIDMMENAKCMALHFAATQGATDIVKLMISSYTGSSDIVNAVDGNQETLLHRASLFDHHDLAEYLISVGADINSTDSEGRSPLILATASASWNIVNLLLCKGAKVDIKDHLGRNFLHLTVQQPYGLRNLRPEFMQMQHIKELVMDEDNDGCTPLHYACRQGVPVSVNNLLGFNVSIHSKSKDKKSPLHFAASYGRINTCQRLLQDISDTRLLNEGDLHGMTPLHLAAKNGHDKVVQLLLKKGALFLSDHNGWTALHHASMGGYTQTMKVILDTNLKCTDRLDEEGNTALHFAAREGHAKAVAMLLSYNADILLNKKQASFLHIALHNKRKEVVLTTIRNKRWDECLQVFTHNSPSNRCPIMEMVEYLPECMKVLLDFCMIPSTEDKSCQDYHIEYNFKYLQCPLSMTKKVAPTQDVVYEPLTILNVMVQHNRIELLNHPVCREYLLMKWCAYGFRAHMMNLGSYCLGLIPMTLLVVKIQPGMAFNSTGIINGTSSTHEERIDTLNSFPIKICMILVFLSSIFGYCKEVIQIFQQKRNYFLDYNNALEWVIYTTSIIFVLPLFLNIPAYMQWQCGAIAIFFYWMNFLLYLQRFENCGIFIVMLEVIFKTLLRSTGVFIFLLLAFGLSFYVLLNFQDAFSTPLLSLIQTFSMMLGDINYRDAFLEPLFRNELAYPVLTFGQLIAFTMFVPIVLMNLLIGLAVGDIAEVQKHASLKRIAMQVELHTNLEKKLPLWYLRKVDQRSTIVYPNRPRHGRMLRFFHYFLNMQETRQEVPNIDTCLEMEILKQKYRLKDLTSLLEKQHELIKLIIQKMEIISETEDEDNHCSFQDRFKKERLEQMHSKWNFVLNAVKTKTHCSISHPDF

**Q.** `c1ccc2[nH]ccc2c1` [Indole] was tested. Which “Activation of human TRPA1 receptor transfected into HEK cells” value (human TRPA1) did it give?
**A.** activated

**Q.** What about the EC50 (human TRPA1) of the same molecule?
**A.** 88.7 µM

**Q.** And the TRPA1 agonist efficacy (human TRPA1; efficiency comparable to cinnamaldehyde (CAD))?
**A.** full TRPA1 agonist activity

**Q.** What about the EC50 (mouse TRPA1) of the same molecule?
**A.** 131 µM

**Q.** What about the “Activation of mouse Trpa1” value (mouse TRPA1; compared with human TRPA1) of the same molecule?
**A.** activated mouse Trpa1, but in a less potent manner

**Q.** And the “Intestinal motility on stimulation of zebrafish larvae” value (intestinal motility)?
**A.** increases intestinal motility

**Q.** And the “Vagal sensory neuron activation in larvae lacking EECs” value (vagal sensory neurons; EEC-ablated zebrafish, enteric indole)?
**A.** abrogated

**Q.** What about the “Gcamp6f fluorescence in a subset of vagal sensory neurons” value (vagal sensory neurons; WT, enteric microgavage ~8 nl, AITC 100 mM, indole 1 mM, IAld 1 mM) of the same molecule?
**A.** increased

From US20230149355A1, “COMPOSITIONS AND METHODS FOR MODULATING TRP CHANNEL ACTIVITY” (priority 2020, published 2023)
